Experimental data from patent US20260055364A1, “Methods for Improving Sperm Function and Fertilizing Ability for Assisted Reproduction Techniques” (Consejo Nacional de Investigaciones Cientificas y Técnicas …, priority 2022, published 2026).

How the values were obtained:
[1] = system: human sperm; test: Sperm motility analysis (CASA) of human sperm after ionophore and/or temperature treatment; assay type: cell-based; conditions: 0.5 μM for 2 min before incubation at 40° C. for 30 min; FIG. 2A
Method: Sperm Motility Analysis: Aliquots of 9.7 μl of sperm suspensions were placed on slides under 18 mm×18 mm coverslips, obtaining a preparation depth of 30 μm, and maintained at 37° C. using a temperature-controlled stage. Sperm motility parameters were evaluated using the Sperm Class Analyzer® system (SCA v.6.2.0.1., Microptic SL, Barcelona, Spain), acquiring 60 frames per second. At least 5 microscopic fields and 300 sperm were analyzed. The following parameters were assessed: curvilinear velocity (VCL, μm/s), straight line velocity (VSL, μm/s), average path velocity (VAP, μm/s), linearity ([…]), straightness (STR×100, %), wobble (WOB: VAP/VCL×100, a measure of sperm head side to side movement, %), amplitude of lateral head displacement (ALH, μm) and beat cross frequency (BCF, Hz). Sperm motility was measured and classified as follows: rapid progressive (VCL≥35 μm/s; STR≥80%), medium progressive (VCL≥15 μm/s; STR≥80%), in situ (VCL<15 μm/s; VAP≥5 μm/s) and immotile (VAP<5 μm/s). Percentages of total (rapid progressive+medium progressive+in situ) and progressive (rapid+medium progressive) motility were recorded. Drifting was set in 25 μm/s. Sperm were considered hyperactivated when presenting VCL≥150 μm/s, LIN<50% and ALH≥3.5 μm.
Semen samples from healthy men were processed by density gradient centrifugation as stated in Example 1. […]

[2] = system: human sperm; conditions: high-concentration ionophore treatment and removal; cited from earlier work
[3] = system: mouse sperm; conditions: cited from earlier work
[4] = system: sperm; conditions: cited from earlier work

CNc1ccc2oc(C[C@H]3O[C@@]4(CC[C@H]3C)O[C@H]([C@H](C)C(=O)c3ccc[nH]3)[C@H](C)C[C@H]4C)nc2c1C(=O)O [A23187]
levels of HA compared to control [1]: higher levels of HA | motility after ionophore treatment [2]: does not regain motility | hyperactivation after removal of the ionophore ([3]; 10-20 μM for 10 min, then removal, Tateno et al): acquires HA | sperm motility ([3]; 10-20 μM for 10 min, Tateno et al): immobilizes | fertility of sperm from CatSper1−/−, Slo3−/− and Adcy10−/− knock-out lines ([3]; 10-20 μM for 10 min with posterior removal, Navarrete et al (2016)): overcomes infertility | sperm HA ([4]; 0.5 and 1 μM): provoked sperm HA without immobilization | sperm motility ([4]; 5-10 μM, in a few minutes): immobilized sperm | intracellular Ca2+ concentrations ([4]; 5-10 μM): substantially elevated
